pEC50: −log10 of the molar value.

For the assay, the system named is HBV. The experiment in a line: HBV-DNA Antiviral Assay Using HepG2.117 Cells (intracellular HBV DNA by qPCR). The class given is cell-based, hepatitis B virus (genotype D). The settings on record: Hepatitis B virus, HepG2.117. In outline:
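Endpoint: qPCR copy number of intracellular HBV DNA after 3-day compound exposure, with inhibition set relative to the 2% DMSO control. The cells were doxycycline-free HepG2.117 carrying a Tet-off genotype D genome, dosed at nine 4-fold dilutions. A duplicate plate gave ATP-based viability (CC50).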
(Quantitative PCR measures a nucleic acid by following its amplification.)
As a reminder, the pEC50 is the EC50 on a negative log10 scale, so that one unit is a factor of ten. Consider `C[C@H]1Cn2c(c(C(=O)NCc3ccccc3-n3cncn3)n(-c3ccc(OC4CC4)cc3)c2=O)CN1C(=O)c1ccc(Br)c(Cl)c1` (stereo in doubt) [Example 448, rac-(6S)-7-(4-bromo-3-chloro-benzoyl)-2-[4-(cyclopropoxy)phenyl]-6-methyl-3-oxo-N-[[2-(1,2,4-triazol-1-yl)phenyl]methyl]-6,8-dihydro-5H-imidazo[1,5-a]pyrazine-1-carboxamide], for which the pEC50 is over 7.00.

`O=C(NCc1ccccc1)c1c2n(c(=O)n1-c1ccc3cn[nH]c3c1)CCN(C(=O)c1ccc(Br)c(Cl)c1)C2` [Example 408, N-benzyl-7-(4-bromo-3-chloro-benzoyl)-2-(1H-indazol-6-yl)-3-oxo-6,8-dihydro-5H-imidazo[1,5-a]pyrazine-1-carboxamide] showed a pEC50 of 6.30 to 7.00.

With `O=C(NCc1ccc(OC(F)(F)F)cc1F)c1c2n(c(=O)n1-c1ccc(OCC(F)(F)F)cc1)CCN(C(=O)c1ccc(Br)c(Cl)c1)C2` [Example 284, 7-(4-bromo-3-chloro-benzoyl)-N-[[2-fluoro-4-(trifluoromethoxy)phenyl]methyl]-3-oxo-2-[4-(2,2,2-trifluoroethoxy)phenyl]-6,8-dihydro-5H-imidazo[1,5-a]pyrazine-1-carboxamide], the pEC50 is 5.30 to 6.30.

For the molecule `COc1ccc(-n2c(C(=O)NCC(C)C)c3n(c2=O)CCN(C(=O)c2ccc(Cl)c(Cl)c2)C3)cc1` [Example 58, 7-(3,4-dichlorobenzoyl)-N-isobutyl-2-(4-methoxyphenyl)-3-oxo-6,8-dihydro-5H-imidazo[1,5-a]pyrazine-1-carboxamide], the pEC50 is under 5.30.

The molecule `COC(=O)c1cccc(CNC(=O)c2c3n(c(=O)n2-c2ccc(OC)cc2)CCN(C(=O)c2ccc(Br)c(Cl)c2)C3)c1` [Example 165, methyl 3-[[[7-(4-bromo-3-chloro-benzoyl)-2-(4-methoxyphenyl)-3-oxo-6,8-dihydro-5H-imidazo[1,5-a]pyrazine-1-carbonyl]amino]methyl]benzoate] gave a pEC50 of 6.30 to 7.00.

`O=C(NCc1ccccc1)c1c2n(c(=O)n1-c1ncccn1)CCN(C(=O)c1ccc(Cl)c(Cl)c1)C2` [Example 138, N-benzyl-7-(3,4-dichlorobenzoyl)-3-oxo-2-pyrimidin-2-yl-6,8-dihydro-5H-imidazo[1,5-a]pyrazine-1-carboxamide] gave a pEC50 of under 5.30.

Turning to `COc1ccc(-n2c(C(=O)NCc3ccc(Cl)c(OC)c3)c3n(c2=O)CCN(C(=O)c2ccc(Br)c(Cl)c2)C3)cc1` [Example 101, 7-(4-bromo-3-chloro-benzoyl)-N-[(4-chloro-3-methoxy-phenyl)methyl]-2-(4-methoxyphenyl)-3-oxo-6,8-dihydro-5H-imidazo[1,5-a]pyrazine-1-carboxamide], the negative-log EC50 (pEC50) was 5.30 to 6.30.

Take `C[C@@H]1Cn2c(c(C(=O)N[C@H](C)c3ccccc3F)n(-c3ccc(OC4CC4)cc3)c2=O)CN1C(=O)c1ccc(Br)c(Cl)c1` (mixture of isomers) [Example 335, (6RS)-7-(4-bromo-3-chloro-benzoyl)-2-[4-(cyclopropoxy)phenyl]-N-[(1S)-1-(2-fluorophenyl)ethyl]-6-methyl-3-oxo-6,8-dihydro-5H-imidazo[1,5-a]pyrazine-1-carboxamide]: the pEC50 was 5.30 to 6.30.

In turn, `O=C(c1ccc(Br)c(Cl)c1)N1CCn2c(c3n(c2=O)C[C@H](O)CN(Cc2ccccc2)C3=O)C1` (stereo in doubt) [Example 174, rac-(11R)-13-benzyl-4-(4-bromo-3-chloro-benzoyl)-11-hydroxy-4,7,9,13-tetrazatricyclo[7.5.0.0^2,7]tetradec-1-ene-8.14-dione] showed a pEC50 of 5.30 to 6.30.

For `N#Cc1cc(C(=O)N2CCn3c(c(C(=O)NCc4ccccc4-c4ncccn4)n(-c4ccc(-n5cccn5)cc4)c3=O)C2)ccc1Br` [Example 426, 7-(4-bromo-3-cyano-benzoyl)-3-oxo-2-(4-pyrazol-1-ylphenyl)-N-[(2-pyrimidin-2-ylphenyl)methyl]-6,8-dihydro-5H-imidazo[1,5-a]pyrazine-1-carboxamide], the pEC50 was 6.30 to 7.00.

Molecule `C[C@H](Oc1ccc(CNC(=O)c2c3n(c(=O)n2-c2ccc(OCC(F)(F)F)cc2)CCN(C(=O)c2ccc(Br)c(Cl)c2)C3)c(F)c1)C(N)=O` (stereo in doubt) [Example 353, 7-(4-bromo-3-chloro-benzoyl)-N-[[2-fluoro-4-[rac-(1S)-2-amino-1-methyl-2-oxo-ethoxy]phenyl]methyl]-3-oxo-2-[4-(2,2,2-trifluoroethoxy)phenyl]-6,8-dihydro-5H-imidazo[1,5-a]pyrazine-1-carboxamide] gave a negative-log EC50 (pEC50) of 5.30 to 6.30.

`CC(C)Oc1ccc(-n2c(C(=O)NCc3ccccc3)c3n(c2=O)CCN(C(=O)c2ccc(Br)nc2)C3)cc1` [Example 223, N-benzyl-7-(6-bromopyridine-3-carbonyl)-2-(4-isopropoxyphenyl)-3-oxo-6,8-dihydro-5H-imidazo[1,5-a]pyrazine-1-carboxamide] had a negative logarithm of the EC50 (pEC50) of under 5.30.

As to `COc1ccc(-n2c(C(=O)N[C@@H](c3ccccc3)C(F)(F)F)c3n(c2=O)CCN(C(=O)c2ccc(Br)c(Cl)c2)C3)cc1` (stereo in doubt) [Example 209, 7-(4-bromo-3-chloro-benozyl)-2-(4-methoxyphenyl)-3-oxo-N-[rac-(1S)-2,2,2-trifluoro-1-phenyl-ethyl]-6,8-dihydro-5H-imidazo[1,5-a]pyrazine-1-carboxamide], the pEC50 is 6.30 to 7.00.

On to `COc1ccc(-n2c(C(=O)NCc3cccc(F)c3)c3n(c2=O)CCN(C(=O)c2ccc(Br)c(Cl)c2)C3)cc1` [Example 125, 7-(4-bromo-3-chloro-benzoyl)-N-[(3-fluorophenyl)methyl]-2-(4-methoxyphenyl)-3-oxo-6,8-dihydro-5H-imidazo[1,5-a]pyrazine-1-carboxamide], for which the pEC50 was 6.30 to 7.00.

Molecule `COc1ccc(-n2c(C(=O)NCc3ccc(Cl)c(OC)c3)c3n(c2=O)CCN(C(=O)c2ccc(Cl)c(Cl)c2)C3)cc1` [Example 102, N-[(4-chloro-3-methoxy-phenyl)methyl]-7-(3,4-dichlorobenzoyl)-2-(4-methoxyphenyl)-3-oxo-6,8-dihydro-5H-imidazo[1,5-a]pyrazine-1-carboxamide] gave a negative logarithm of the EC50 (pEC50) of 5.30 to 6.30.

The molecule `C[C@@H](Oc1ccc(CNC(=O)c2c3n(c(=O)n2-c2ccc(OC4CC4)cc2)CCN(C(=O)c2ccc(Br)c(Cl)c2)C3)c(F)c1)C(N)=O` (racemic) [Example 406, 7-(4-bromo-3-chloro-benzoyl)-2-[4-(cyclopropoxy)phenyl]-N-[[2-fluoro-4-[rac-(1R)-2-amino-1-methyl-2-oxo-ethoxy]phenyl]methyl]-3-oxo-6,8-dihydro-5H-imidazo[1,5-a]pyrazine-1-carboxamide] gave a pEC50 of 6.30 to 7.00.

In turn, `O=C(NCc1ccccc1)c1c2n(c(=O)n1-c1cccnc1)CCN(C(=O)c1ccc(Cl)c(Cl)c1)C2` [Example 49, N-benzyl-7-(3,4-dichlorobenzoyl)-3-oxo-2-(3-pyridyl)-6,8-dihydro-5H-imidazo[1,5-a]pyrazine-1-carboxamide] showed a negative logarithm of the EC50 (pEC50) of under 5.30.

Molecule `N#Cc1cccc(-n2c(C(=O)NCc3ccccc3)c3n(c2=O)CCN(C(=O)c2ccc(Br)c(Cl)c2)C3)c1` [Example 44, N-benzyl-7-(4-bromo-3-chloro-benzoyl)-2-(3-cyanophenyl)-3-oxo-6,8-dihydro-5H-imidazo[1,5-a]pyrazine-1-carboxamide] gave a negative-log EC50 (pEC50) of 5.30 to 6.30.

As for `C[C@@H](NC(=O)c1c2n(c(=O)n1-c1ccc(OC3CC3)cc1)CCN(C(=O)c1ccc(Br)c(Cl)c1)C2)c1ccc(OCC(N)=O)cc1F` (stereo in doubt) [Example 316, 7-(4-bromo-3-chloro-benzoyl)-2-[4-(cyclopropoxy)phenyl]-3-oxo-N-[rac-(1S)-1-[4-(2-amino-2-oxo-ethoxy)-2-fluoro-phenyl]ethyl]-6,8-dihydro-5H-imidazo[1,5-a]pyrazine-1-carboxamide], the negative-log EC50 (pEC50) is over 7.00.

The molecule `CC(C)Oc1ccc(-n2c(C(=O)NCc3ccccc3)c3n(c2=O)CCN(C(=O)c2ccc(Br)c(C#N)c2)C3)cc1` [Example 217, N-benzyl-7-(4-bromo-3-cyano-benzoyl)-2-(4-isopropoxyphenyl)-3-oxo-6,8-dihydro-5H-imidazo[1,5-a]pyrazine-1-carboxamide] gave a pEC50 of 5.30 to 6.30.

`Cc1nc2cc(-n3c(C(=O)NCc4ccccc4)c4n(c3=O)CCN(C(=O)c3ccc(Br)c(Cl)c3)C4)ccc2o1` [Example 418, N-benzyl-7-(4-bromo-3-chloro-benzoyl)-2-(2-methyl-1,3-benzoxazol-5-yl)-3-oxo-6,8-dihydro-5H-imidazo[1,5-a]pyrazine-1-carboxamide] showed a pEC50 of 6.30 to 7.00.

For the molecule `CC(C)Oc1ccc(-n2c(C(=O)NCc3ccccc3)c3n(c2=O)CCN(C(=O)/C=C/c2ccc(Cl)c(Cl)c2)C3)cc1` [Example 242, N-benzyl-7-[(E)-3-(3,4-dichlorophenyl)prop-2-enoyl]-2-(4-isopropoxyphenyl)-3-oxo-6,8-dihydro-5H-imidazo[1,5-a]pyrazine-1-carboxamide], the negative-log EC50 (pEC50) is under 5.30.

`O=C(NCc1c(F)cccc1-n1cccn1)c1c2n(c(=O)n1-c1ccc(OC3CC3)cc1)CCN(C(=O)c1ccc(Br)c(Cl)c1)C2` [Example 435, 7-(4-bromo-3-chloro-benzoyl)-2-[4-(cyclopropoxy)phenyl]-N-[(2-fluoro-6-pyrazol-1-yl-phenyl)methyl]-3-oxo-6,8-dihydro-5H-imidazo[1,5-a]pyrazine-1-carboxamide] showed a pEC50 of over 7.00.

In turn, `CC(C)(Oc1ccc(-n2c(C(=O)NCc3ccccc3)c3n(c2=O)CCN(C(=O)c2ccc(Br)c(Cl)c2)C3)cc1)C(F)(F)F` [Example 393, N-benzyl-7-(4-bromo-3-chloro-benzoyl)-3-oxo-2-[4-(2,2,2-trifluoro-1,1-dimethyl-ethoxy)phenyl]-6,8-dihydro-5H-imidazo[1,5-a]pyrazine-1-carboxamide] had a pEC50 of 5.30 to 6.30.

Turning to `COc1ccc(-n2c(C(=O)NCc3cccc(C#N)c3)c3n(c2=O)CCN(C(=O)c2ccc(Cl)c(Cl)c2)C3)cc1` [Example 63, N-[(3-cyanophenyl)methyl]-7-(3,4-dichlorobenzoyl)-2-(4-methoxyphenyl)-3-oxo-6,8-dihydro-5H-imidazo[1,5-a]pyrazine-1-carboxamide], the negative logarithm of the EC50 (pEC50) was 5.30 to 6.30.

Values taken from patent US11591341B2 (ALIGOS THERAPEUTICS, INC., priority 2019, dated 2023).
